In ChEMBL document CHEMBL1141675, “QSAR modeling of the interaction of flavonoids with GABA(A) receptor” (Eur J Med Chem, 2008) one finds logKi data, which are given here for 78 compounds.

This test in a line: Binding affinity to GABAA receptor. Set-up: unit not given here.
As to `O=c1c(O)c(-c2ccc(O)cc2)oc2cc(O)cc(O)c12`, the logKi came to 1.97.
The same measure for `O=c1cc(-c2ccccc2)oc2c(Br)c(O)c(Br)c(O)c12`: -0.155; for `O=c1cc(-c2ccc(F)cc2)oc2ccc(F)cc12`: 0.398; for `O=c1cc(-c2cccc([N+](=O)[O-])c2)oc2ccccc12`: -0.545.
The result for `O=c1cc(-c2ccccc2F)oc2ccc(Br)cc12` reads -0.424.
The result for `O=c1cc(-c2ccc(F)cc2)oc2ccccc12` reads 0.556; that for `Cc1cccc(-c2cc(=O)c3cc(C)ccc3o2)c1`, -0.682.
`COc1cc(O)c2c(=O)cc(-c3ccccc3)oc2c1`: the logKi turned out to be 1.7.
Compound `O=c1cc(-c2cccc(Cl)c2)oc2ccc(F)cc12` showed a logKi of -0.701.
For `COc1ccc2oc(-c3ccccc3N)cc(=O)c2c1`, the logKi was 0.544.
The result for `O=c1cc(-c2cccc(Br)c2)oc2ccccc12` reads -0.384.
The same measure for `O=c1cc(-c2ccccc2F)oc2cc(O)cc(O)c12`: 0.903; for `COc1ccc2oc(-c3cccc(Br)c3)cc(=O)c2c1`: 0; for `Cc1cccc(-c2cc(=O)c3cc(Br)ccc3o2)c1`: -0.812.
The result for `O=c1cc(-c2cccc([N+](=O)[O-])c2)oc2ccc([N+](=O)[O-])cc12` reads -1.58; that for `O=c1cc(-c2ccccc2)oc2ccccc12`, 0; that for `O=c1cc(-c2ccccc2F)oc2ccc(Cl)cc12`, -0.38.
`Cc1ccc2oc(-c3cccc([N+](=O)[O-])c3)cc(=O)c2c1`: the logKi is -2.25.
`O=c1cc(-c2ccccc2O)oc2ccc3ccccc3c12` came in with a logKi of -1.57.
The same measure for `O=c1cc(-c2ccccc2Cl)oc2cc(O)cc(O)c12`: 0.903.
The same measure for `Cc1cccc(-c2cc(=O)c3ccccc3o2)c1`: 1; for `O=c1cc(-c2cccc(Br)c2)oc2ccc(O)cc12`: 0.
In turn, `COc1cc2oc(-c3ccc(O)c(O)c3)cc(=O)c2c(O)c1OC` showed a logKi of 2.3.
The same measure for `COc1cc2oc(-c3ccc(O)cc3)cc(=O)c2c(O)c1OC`: 1.36; for `O=c1cc(-c2cccc(O)c2)oc2ccc(Cl)cc12`: -0.07; for `O=c1cc(-c2ccccc2O)oc2cc(O)cc(O)c12`: -1.12.
The same measure for `O=c1cc(-c2cccc(Cl)c2)oc2ccc(Cl)cc12`: -1.64; for `O=c1cc(-c2cccc(Cl)c2)oc2ccccc12`: -0.212.
The result for `COc1c(O)cc2oc(-c3ccccc3O)cc(=O)c2c1O` reads -1.42; that for `COc1ccccc1-c1cc(=O)c2ccccc2o1`, 1.51.
For `O=c1cc(-c2cccc([N+](=O)[O-])c2)oc2ccc(F)cc12`, the logKi was -0.745.
Compound `O=c1cc(-c2ccccc2)oc2c(I)c(O)c(I)c(O)c12` registered a logKi of 0.
The result for `O=c1cc(-c2ccccc2)oc2ccc([N+](=O)[O-])cc12` reads -0.561; that for `COc1c(O)c(OC)c2oc(-c3ccccc3O)cc(=O)c2c1O`, -2.21; that for `COc1c(O)cc2oc(-c3ccc(O)cc3)cc(=O)c2c1O`, 0.
`O=c1cc(-c2cccc(F)c2)oc2ccc(Cl)cc12` gave a logKi of -0.932.
The same measure for `COc1ccc2oc(-c3ccccc3)cc(=O)c2c1`: -0.066.
For `O=c1cc(-c2ccc(F)cc2)oc2ccc(Br)cc12`, the logKi is -0.939.
In the case of `O=c1cc(-c2cccc(O)c2)oc2ccc(F)cc12`, the logKi is 0.4.
The compound `O=c1cc(-c2cccc(Cl)c2)oc2ccc(Br)cc12` returned a logKi of -1.77.
Compound `COc1c(O)c(OC)c2oc(-c3ccccc3)cc(=O)c2c1O` came in with a logKi of -0.699.
The same measure for `O=c1cc(-c2ccc(Br)cc2)oc2ccc([N+](=O)[O-])cc12`: -1.6; for `COc1cccc(-c2cc(=O)c3cc(Cl)ccc3o2)c1`: -0.072; for `COc1ccccc1-c1cc(=O)c2cc(O)ccc2o1`: 0.976.
The same measure for `COc1cccc(-c2cc(=O)c3cc(F)ccc3o2)c1`: 0.398.
The result for `O=c1cc(-c2ccccc2)oc2cc(O)ccc12` reads 0.623.
Consider `O=c1cc(-c2cccc(Br)c2)oc2ccc(Br)cc12`, for which the logKi is -1.72.
With `COc1cccc(-c2cc(=O)c3cc(Br)ccc3o2)c1`, the logKi was -0.215.
Regarding `O=c1cc(-c2ccccc2)oc2ccc(O)cc12`, the logKi was found to be 0.422.
The compound `COc1ccc(-c2cc(=O)c3cc(Cl)ccc3o2)cc1` yielded a logKi of 0.097.
Take `O=c1cc(-c2ccc([N+](=O)[O-])cc2)oc2ccc(Br)cc12`: the logKi was -0.699.
The same measure for `O=c1cc(-c2cccc(Br)c2)oc2ccc([N+](=O)[O-])cc12`: -1.6; for `Cc1ccc2oc(-c3ccccc3)cc(=O)c2c1`: -0.903; for `O=c1cc(-c2ccccc2O)oc2cc(O)ccc12`: -0.252.
The result for `O=c1cc(-c2cccc([N+](=O)[O-])c2)oc2ccc(Br)cc12` reads -3.
The same measure for `O=c1cc(-c2cccc(F)c2)oc2ccc(F)cc12`: -0.036; for `O=c1cc(-c2ccccc2)oc2cc(O)cc(O)c12`: 0.477.
In turn, `O=c1cc(-c2ccccc2)oc2cc(O)c(O)c(O)c12` showed a logKi of 0.747.
The result for `O=c1cc(-c2cccc([N+](=O)[O-])c2)oc2ccc(Cl)cc12` reads -2.1.
The compound `O=c1cc(-c2ccccc2O)oc2ccc(O)cc12` returned a logKi of -1.47.
In the case of `O=c1cc(-c2ccccc2[N+](=O)[O-])oc2ccc(Br)cc12`, the logKi was -0.68.
With `COc1ccc(-c2cc(=O)c3cc(Br)ccc3o2)cc1`, the logKi stood at 0.322.
In the case of `Cc1ccc2oc(-c3cccc(Br)c3)cc(=O)c2c1`, the logKi is -1.89.
The result for `COc1cccc(O)c1-c1cc(=O)c2c(O)c(OC)c(OC)c(OC)c2o1` reads -0.444; that for `O=c1cc(-c2ccc(O)cc2)oc2cc(O)cc(O)c12`, 0.602; that for `O=c1cc(-c2cccc(F)c2)oc2ccc(Br)cc12`, -1.38.
Take `O=c1cc(-c2ccccc2)oc2ccc(Cl)cc12`: the logKi was -0.785.
The result for `O=c1cc(-c2cccc(F)c2)oc2ccccc12` reads 0.55.
The result for `O=c1cc(-c2ccccc2)oc2ccc(Br)cc12` reads -1.16.
The same measure for `O=c1cc(-c2cccc(Br)c2)oc2ccc(F)cc12`: -0.627; for `O=c1cc(-c2ccc(F)cc2)oc2ccc(Cl)cc12`: -0.742; for `O=c1cc(-c2ccccc2O)oc2ccccc12`: -0.678.
Compound `COc1c(O)cc(O)c2c(=O)cc(-c3ccccc3)oc12` registered a logKi of 0.182.
As for `O=c1cc(-c2cccc(O)c2)oc2ccc(Br)cc12`, the logKi is -0.22.
In turn, `COc1cccc(-c2cc(=O)c3ccccc3o2)c1` gave a logKi of 0.38.
Compound `O=c1cc(-c2ccccc2)oc2ccc(F)cc12` returned a logKi of 0.653.
The result for `COc1c(O)cc2oc(-c3ccccc3)cc(=O)c2c1O` reads -0.051; that for `O=c1cc(-c2cccc(Br)c2)oc2ccc(Cl)cc12`, -1.64.
